Entries after “also recorded” stand apart in the source; their conditions may differ.

In series [1] the test system is hiPSC-CMs. The series can be described thus: Cardio-NLCS impedance and extracellular field potential (EFP) recording. Type of series: cell-based, human. Here is the method: (§1) After plating for about 3 days, CMs matured and began to beat. At this time, different compounds were added, and experiments were performed 24 h after treatment. The experiments were grouped as follows: control group (normal medium); matrine, oxymatrine, sophocarpine, and cytisine treatment (2, 10, 50 μM) groups; and aconitine treatment (1 μM) group. The doses of toxicity studies above were determined by the effective therapeutic doses reported and included or exceeded the therapeutic dose.
Cardio-NLCS (Optoprobe Science LTD, Canada) is a turn-key system for efficient impedance and extracellular field potential (EFP) measurements of cell monolayers or tissue preparations. NSP-96 dedicated for Cardio-NLCS should be coated with BD and the wells should not run dry before adding the cell suspension. After seeding, the medium was not exchanged for 12 h. Subsequently, the medium exchange was completed once a day for 2–3 days and every 2 days thereafter. Adding compounds required a complete solution exchange to allow for exact dosing. After the cells were allowed to re-equilibrate for 2–3 h, the 2× concentrated compounds were added by exchanging half of the medium per well. In this experiment, several indexes (base impedance, amplitude, beat rate, and FPD) were recorded at the start of the experiment (control), then every 5 min for 4 h after compound application and every 30 min the same as cell growth period detection, lasting a minimum of 24 h. In this way, both time and concentration-dependent effects could be monitored. Impedance and EFP data analyses were taken every 4 h after compound administrations.

Series [2] deals with hiPSC-CMs. To be noted: hiPSC-CMs; 2, 10, 50 μM tested. Here is the method:
as §1
Cell treatment method was the same as above. After reaching the predetermined time, 120 μl of the supernatant of each well was taken for measuring LDH leakage using a commercially available kit (Beyotime Biotechnology, Shanghai, China) following the manufacturer’s instructions. Data were presented as the mean ± SEM, n ≥ 3.

In series [3] the test system is hiPSC-CMs. In words: SOD, GSH and MDA assay. Format: cell-based, human. To be noted: 2, 10, 50 μM. As for the experimental part:
as §1
Cell treatment was the same as discussed in the “Compound treatment” section. After reaching the predetermined time, the cells were washed with 4 °C physiological saline and later were added into the lysate and appropriately pipetted. After centrifuging at 1.2 × 10^4 rpm for 5 min, the supernatant was obtained to measure the levels of SOD, GSH and MDA using a commercially available kit (Beyotime Biotechnology, Shanghai, China) following the manufacturer's instructions. Data were presented as the mean ± SEM, n ≥ 3.

The test system of series [4] is hiPSC-CMs. To be noted: hiPSC-CMs, 24 h; for Cell viability: lowest concentration that demonstrated a significant change compare with the control group: 2, 10, 50 μM tested; for Cell viability (in words): alkaloids 2, 10, 50 μM, aconitine 1 μM. As for the experimental part: as §1
CMs were incubated in 10% CCK-8 (Dojindo, Kumamoto, Japan) that was diluted in normal culture medium at 37 °C until a visual color conversion occurred. The absorbance of each well was measured using a microplate reader (Spectrafluor, TECAN, Sunrise, Austria) at 450 nm. Three individual experiments were performed. All samples were operated in duplicate.
A 96-well plate was used to seed hiPSC-CMs at a concentration of 5 × 10^4 cells per well. The cultured cells were treated with different concentrations of compounds and were incubated for another 48 h. CMs were digested with trypsin, and a small amount of cell suspension was added into the same amount of trypan blue solution. Countstar Automated Cell Counter IC1000 (Elite Life Sciences, Shanghai, China) was used to count the number of total and living cells. Data were presented as the mean ± SEM, n ≥ 3.

In a further series the test system is GCaMP hESC-CMs. Format: cell-based, human. To be noted: hESC-CMs; 2, 10, 50 μM tested. As for the experimental part: The hESC-CMs in this experiment can express the GCaMP reporter gene by gene editing, and green fluorescence marker can be observed by a fluorescence microscope. The fluorescence intensity is proportional to Ca^2+ concentration. The CMs were seeded into 96-well plates at 5000/well and were administered the same as above. The fluorescence intensities of hESC-CMs were monitored using an IncuCyte™ S3 ZOOM cell imaging system (Essen BioScience, Ann Arbor, MI). Data were presented as the mean ± SEM, n ≥ 3.

For series [5], the system named is hiPSC-CMs. Type of series: cell-based, human. To be noted: hiPSC-CMs; 2, 10, 50 μM tested. As for the experimental part:
Cells were incubated in a maintaining medium containing 10 μM DCFH-DA (Beyotime Biotechnology, Shanghai, China) for 30 min at 37 °C in the dark. The measurement of ROS was performed with IncuCyte™ S3 ZOOM cell imaging system (Essen BioScience, Ann Arbor, MI). TissueQuest 6.0 was used for the quantitative analysis of ROS formation. Data were presented as the mean ± SEM, n ≥ 3.

Where [6] appears, read: 2, 10, 50 μM tested, recorded over 24 h.
Where [7] appears, read: at the lowest effective concentration.

For `O=C1CCC[C@@H]2[C@H]3CCC[N+]4([O-])CCC[C@@H](CN12)[C@@H]34` (stereo partly drawn) [Oxymatrine, oxymatrine], in the series with hiPSC-CMs [1] (setting [6]), the “Amplitude (EFP): lowest concentration that demonstrated a significant change compare with the control group” value amounted to 10 µM, the “Beat rate: lowest concentration that demonstrated a significant change compare with the control group” value was 10 µM and the “FPD: lowest concentration that demonstrated a significant change compare with the control group” value is given as “No effect”. For the same compound, in the series on hiPSC-CMs [1] (2, 10, 50 μM, 24 h recording), the “Base impedance vs the control group (in words)” value was “no change, except 10 μM oxymatrine treatment”; the “Beat rate vs the control group (in words)” value was “slightly lower; also recorded: large fluctuation”; the “Contractile amplitude (amplitude of IMP) vs the control group (in words)” value was “upward dose-dependent trend”; the “FPD value vs the control group (in words)” value is given as “remained stable in all groups”. Further, in the series with hiPSC-CMs [1] (2, 10, 50 μM, 24 h recording), the “Potential amplitude (amplitude of EFP) vs the control group (in words)” value is listed as “upward dose-dependent trend; also recorded: large fluctuation”. In the series with hiPSC-CMs [1] (setting [7]), the “Amplitude (EFP): initial time of significant change compare with the control group” value stood at 12 h, the “Amplitude (IMP): initial time of significant change compare with the control group” value was 4 h and the “Beat rate: initial time of significant change compare with the control group” value turned out to be 4 h. Besides, the “LDH leakage: lowest concentration that demonstrated a significant change compare with the control group” value with hiPSC-CMs [2] came out at 2 µM. Besides, in the series on hiPSC-CMs [3], the “GSH activity (in words)” value was “sharply lowered”, the “MDA level (in words)” value is reported as “rose” and the “SOD activity (in words)” value is “sharply lowered”. Moreover, in the series with hiPSC-CMs [4], the “Cell viability: lowest concentration that demonstrated a significant change compare with the control group” value stood at 10 µM and the “Cell viability (in words)” value is “decreased dose-dependently”.

On to `O=C1C=CC[C@@H]2[C@H]3CCCN4CCC[C@@H](CN12)[C@@H]34` [Sophocarpine, sophocarpine], for which the “FPD after high-dose administration (in words)” value in the series on hiPSC-CMs [1] (50 μM) is “immediately increased in a jump”. In addition, in the series on hiPSC-CMs [1] (setting [6]), the “Amplitude (EFP): lowest concentration that demonstrated a significant change compare with the control group” value worked out at 50 µM, the “Amplitude (IMP): lowest concentration that demonstrated a significant change compare with the control group” value was 50 µM, the “Base impedance: lowest concentration that demonstrated a significant change compare with the control group” value is 50 µM and the “Beat rate: lowest concentration that demonstrated a significant change compare with the control group” value worked out at 50 µM. In addition, the “FPD: lowest concentration that demonstrated a significant change compare with the control group” value in the series with hiPSC-CMs [1] (setting [6]) came out at 50 µM. For the same compound, in the series with hiPSC-CMs [1] (2, 10, 50 μM, 24 h recording), the “Base impedance vs the control group (in words)” value is recorded as “no change”; the “Contractile amplitude (amplitude of IMP) vs the control group (in words)” value is given as “upward dose-dependent trend”; the “FPD value vs the control group (in words)” value is “large differences in the first 12 h and remained stable after 15 h of treatment”; the “Potential amplitude (amplitude of EFP) vs the control group (in words)” value is “no change”. In the series with hiPSC-CMs [1] (setting [7]), the “Amplitude (EFP): initial time of significant change compare with the control group” value was 16 h, the “Base impedance: initial time of significant change compare with the control group” value is reported as 8 h, the “Beat rate: initial time of significant change compare with the control group” value stood at 4 h and the “FPD: period of time of significant change compare with the control group” value is 0 to 12 h. In the series with hiPSC-CMs [2], the “LDH leakage: lowest concentration that demonstrated a significant change compare with the control group” value is 2 µM. In addition, the “[Ca^2+]i: lowest concentration that demonstrated a significant change compare with the control group” value with GCaMP hESC-CMs turned out to be 50 µM. Also, in the series on hiPSC-CMs [3], the “GSH activity (in words)” value is “sharply lowered”, the “MDA level (in words)” value is listed as “rose” and the “SOD activity (in words)” value is “sharply lowered”. In the series on hiPSC-CMs [4], the “Cell viability: lowest concentration that demonstrated a significant change compare with the control group” value turned out to be 10 µM and the “Cell viability (in words)” value is “decreased dose-dependently”. Further, the “ROS level: lowest concentration that demonstrated a significant change compare with the control group” value with hiPSC-CMs [5] stood at 10 µM.

For the origin of these results see publication PMC6330446, “An integrated characterization of contractile, electrophysiological, and structural cardiotoxicity of Sophora tonkinensis Gapnep. in human pluripotent stem cell-derived cardiomyocytes” (Stem Cell Research & Therapy, 2019).
